# Measured values published in patent US20250082752A1, “COMPOUNDS, TARGETS, AND METHODS FOR MODULATING LYTIC GRANULE CONVERGENCE IN CYTOTOXIC CELLS TO PROMOTE BYSTANDER KILLING IN CELLULAR THERAPIES” (THE TRUSTEES OF COLUMBIA UNIVERSITY IN THE CITY OF NEW YORK, priority 2022, published 2025).
# Legend:
# Format in all cases: cell-based
# YTS cells [1] = experiment: CD107a degranulation of treated YTS cells after conjugation with 721.221 target cells; conditions: 5 days, Centrinone 5 nM or CFI400495 50 nM
# Method: CD107a (also known as LAMP-1) is the standard to measure the process of degranulation. The more CD107a is expressed on the surface of the cell after stimulation, the more granules have been released. This is limited to the immunological synapse, in part secondary to the convergence process. CD107a upregulation is measured via flow cytometry after PMA/lonomycin activation and can be measured following target cell conjugation. […] The latter requires synapse formation and engagement of receptors for downstream activation signaling. Differences in results between these two approaches (target cell conjugation versus PMA/lonomycin) map the candidate's impact to early (synapse formation and signaling) or late (mechanics of) degranulation.
# (§1) Centrinone and CFI400495 are high affinity and selective PLK4 inhibitors that induce depletion of the centrosome and cell cycle arrest. YTS cells were treated for 5 days with Centrinone 5 nM or CFI400495 50 nM. […] For this experiment, 5×10^5 cells/ml YTS cells were incubated during 5 days Centrinone 5 nM or CFI400495 50 nM, every 24 hours the media were replaced with fresh media containing similar amounts of the drug. On day 5, cells were assessed by microscopy for gamma-tubulin or alpha-tubulin.
# YTS cells [2] = experiment: Confocal microscopy of granule dispersion in YTS cells after Centrinone or CFI400495; conditions: YTS cells after treatment with Centrinone or CFI400495
# Method: as §1
# YTS cells [3] = experiment: Number of MTOC (alpha-tubulin hyper densities) in YTS cells treated with PLK4 inhibitors; conditions: 5 days, Centrinone 5 nM or CFI400495 50 nM
# Method: as §1
compound,measurement,setting,value
"COc1ccc2c(c1)[C@]1(C[C@H]1c1ccc3c(/C=C/c4ccc(CN5C[C@@H](C)O[C@@H](C)C5)cc4)n[nH]c3c1)C(=O)N2.O=C(O)/C=C/C(=O)O [CFI400495, Spiro[cyclopropane-1,3′-[3H]indol]-2′(1′H)-one, 2-[3-[(E)-2-[4-[[(2R,6S)-2,6-dimethyl-4-morpholinyl]methyl]phenyl]ethenyl]-1H-indazol-6-yl]-5′-methoxy-, (1R,2S)-, (2E)-2-butenedioate (1:1)]",degranulation (CD107a expression),YTS cells [1],increases degranulation
same,granule dispersion (confocal microscopy images),YTS cells [2],more disperse granules
same,number of MTOC (alpha Tubulin hyper densities),YTS cells [3],increase number of mTOC
